Test results from patent publication US5140009A (Tap Pharmaceuticals, Inc., priority 1990, dated 1992).
Numbered stars: 1 amine (or outer) side, 2 acyl side, 3 side chain; on linkers, the order of the positions; unused ones are H or OH. Square brackets hold non-standard residues; d marks the D form. Peptide text beside a SMILES is read from it. * marks the point of attachment. Propanoyl(3-(1-naphthyl)) = O=C(CCc1cccc2ccccc12)*; Propanoyl(3-indol-3-yl) = O=C(CCc1c[nH]c2ccccc12)*; Acryloyl(3-(pyridin-3-yl)) = O=C(C=Cc1cccnc1)*; Propanoyl(3-(3-pyridyl)) = O=C(CCc1cccnc1)*; Desaminohistidyl = O=C(CCc1c[nH]cn1)*; d2Nal = N[C@H](Cc1ccc2ccccc2c1)C(=O)O; dLys(iPr) = CC(C)NCCCC[C@@H](N)C(=O)O; X11 = CN(C)c1ccc(C=CC(=O)*)cc1; NMeL = CN[C@@H](CC(C)C)C(=O)O; dNMeL = CN[C@H](CC(C)C)C(=O)O; Nicotinoyl = O=C(c1cccnc1)*; Picolinoyl = O=C(c1ccccn1)*; dOrn = NCCC[C@@H](N)C(=O)O; Morpholide = C1CN(*)CCO1; X2 = O=C(C=Cc1ccccc1)*; CO = O=C([*:1])[*:2]; Bn = c1ccc(C*)cc1

These compounds were tested against T1, LHRH receptors (Rattus norvegicus, UniProt P30969) (assay: Receptor Binding (radioligand receptor binding assay)). Conditions: table 3; rat pituitary membranes, radioiodinated [D-Leu^6 -des Gly^10 ]-LHRH ethyl amide 50 pM, 2 hours at 4° C.; read-out: Receptor Binding pkI (converted).
T1 construct: Pituitary membranes containing LHRH receptors are prepared in batches from quick-frozen rat pituitaries; tissue Hilltop Labs; host or cells: rat pituitary membranes
T1 sequence (P30969 1-327): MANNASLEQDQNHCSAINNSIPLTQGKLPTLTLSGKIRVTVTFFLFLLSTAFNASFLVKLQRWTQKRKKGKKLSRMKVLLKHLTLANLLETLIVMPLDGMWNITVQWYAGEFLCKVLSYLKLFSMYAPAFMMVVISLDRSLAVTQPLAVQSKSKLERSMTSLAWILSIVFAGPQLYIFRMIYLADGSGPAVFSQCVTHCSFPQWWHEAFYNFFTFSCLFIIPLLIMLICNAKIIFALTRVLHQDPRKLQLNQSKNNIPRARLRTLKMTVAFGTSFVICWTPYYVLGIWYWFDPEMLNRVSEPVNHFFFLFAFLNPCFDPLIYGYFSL

SMILES	Ki
CCNC(=O)[C@@H]1CCCN1C(=O)[C@H](CCCN=C(N)N)NC(=O)[C@H](CC(C)C)NC(=O)[C@@H](CC(C)C)NC(=O)[C@H](Cc1ccc(O)cc1)NC(=O)[C@H](CO)NC(=O)CCc1cccnc1 [Compound 41, (4-9)[N-(3-(3-Pyridyl)propionyl)-Ser^4 -D-Leu^6 -Pro^9 -NHEt]LHRH] ({Propanoyl(3-(3-pyridyl))}-SY[dL]LRP-NHEt)	1740 nM
CCNC(=O)[C@@H]1CCCN1C(=O)[C@H](CCCNC(=N)N)NC(=O)[C@H](CC(C)C)NC(=O)[C@@H](Cc1c[nH]c2ccccc12)NC(=O)[C@H](Cc1ccc(O)cc1)NC(=O)[C@H](CO)NC(=O)C=Cc1cccnc1 [Compound 43, (4-9)[N-(3-(3-Pyridyl)acryloyl)-Ser^4 -D-Trp^6 -Pro^9 -NHEt]LHRH] ({Acryloyl(3-(pyridin-3-yl))}-SY[dW]LRP-NHEt)	646 nM
CCNC(=O)[C@@H]1CCCN1C(=O)[C@H](CCCNC(=N)N)NC(=O)[C@H](CC(C)C)NC(=O)[C@@H](CCCNC(=N)N)NC(=O)[C@H](Cc1ccc(O)cc1)NC(=O)[C@H](CO)NC(=O)CCc1cccc2ccccc12 [Compound 44, (4-9)[N-(3-(1-Naphthyl)propionyl)-Ser^4 -D-Arg^6 -Pro^9 -NHEt]LHRH] ({Propanoyl(3-(1-naphthyl))}-SY[dR]LRP-NHEt)	3.98 nM
CCNC(=O)[C@@H]1CCCN1C(=O)[C@H](CCCNC(=N)N)NC(=O)[C@H](CC(C)C)NC(=O)[C@@H](CCCNC(=N)N)NC(=O)[C@H](Cc1ccc(O)cc1)NC(=O)[C@H](COCc1ccccc1)NC(=O)CCc1cccc2ccccc12 [Compound 45, (4-9)[N-(3-(1-Naphthyl)propionyl)-Ser^4 (OBzl)-D-Arg^6 -Pro^9 -NHEt]LHRH] ({Propanoyl(3-(1-naphthyl))}-S(Bn)Y[dR]LRP-NHEt)	6.03 nM
CCNC(=O)[C@@H]1CCCN1C(=O)[C@H](CCCNC(=N)N)NC(=O)[C@H](CC(C)C)N(C)C(=O)[C@@H](Cc1c[nH]c2ccccc12)NC(=O)[C@H](Cc1ccc(O)cc1)NC(=O)[C@H](CO)NC(=O)CCc1c[nH]c2ccccc12 [Compound 46, N-(3-(3-Indole)propionyl)Ser-Tyr-D-Trp-N-Me-Leu-Arg-Pro-NHEt] ({Propanoyl(3-indol-3-yl)}-SY[dW][NMeL]RP-NHEt)	11 nM
CC(C)C[C@H](NC(=O)[C@@H](Cc1ccc2ccccc2c1)NC(=O)[C@H](Cc1ccc(O)cc1)NC(=O)[C@H](CO)NC(=O)CCc1c[nH]c2ccccc12)C(=O)N[C@@H](CCCNC(=N)N)C(=O)N1CCC[C@H]1C(=O)NCC(N)=O [Compound 47, N-(3-(3-Indole)propionyl)-Ser-Tyr-D-2-Nal-Leu-Arg-Pro-Gly-NH2] ({Propanoyl(3-indol-3-yl)}-SY[d2Nal]LRPG-NH2)	4.27 nM
CCNC(=O)[C@@H]1CCCN1C(=O)[C@H](CCCNC(=N)N)NC(=O)[C@H](CC(C)C)NC(=O)[C@@H](CCCN)NC(=O)[C@H](Cc1ccc(O)cc1)NC(=O)[C@H](CO)NC(=O)CCc1c[nH]c2ccccc12 [Compound 49, (4-9) [N-(3-(3-indole)propionyl)-Ser^4 -D-Orn^6 -Pro^9 NHEt]LHRH] ({Propanoyl(3-indol-3-yl)}-SY[dOrn]LRP-NHEt)	55 nM
CCNC(=O)[C@@H]1CCCN1C(=O)[C@H](CCCNC(=N)N)NC(=O)[C@H](CC(C)C)NC(=O)[C@@H](CCC(N)=O)NC(=O)[C@H](Cc1ccc(O)cc1)NC(=O)[C@H](CO)NC(=O)CCc1c[nH]c2ccccc12 [Compound 50, (4-9)[N-(3-(3-Indole)propionyl)-Ser^4 -D-Gln^6 -Pro^9 -NHEt]LHRH] ({Propanoyl(3-indol-3-yl)}-SY[dQ]LRP-NHEt)	166 nM
CCNC(=O)CC[C@@H](NC(=O)[C@H](Cc1ccc(O)cc1)NC(=O)[C@H](CO)NC(=O)CCc1c[nH]c2ccccc12)C(=O)N[C@@H](CC(C)C)C(=O)N[C@@H](CCCNC(=N)N)C(=O)N1CCC[C@H]1C(=O)NCC [Compound 51, N-(3-(3-Indole)propionyl)-Ser-Tyr-N-delta-ethyl-D-Gln-Leu-Arg-ProNHEt] ({Propanoyl(3-indol-3-yl)}-SY[dE](NHEt)LRP-NHEt)	132 nM
CCNC(=O)[C@@H]1CCCN1C(=O)[C@H](CCCNC(=N)N)NC(=O)[C@H](CC(C)C)NC(=O)[C@@H](CCCCNC(=O)c1cccnc1)NC(=O)[C@H](Cc1ccc(O)cc1)NC(=O)[C@H](CO)NC(=O)CCc1c[nH]c2ccccc12 [Compound 52] ({Propanoyl(3-indol-3-yl)}-SY[dK](Nicotinoyl)LRP-NHEt)	21.9 nM

Continued, values first:

Ki	SMILES
27.5 nM	CCNC(=O)[C@@H]1CCCN1C(=O)[C@H](CCCNC(=N)N)NC(=O)[C@H](CC(C)C)NC(=O)[C@@H](CCCCNC(=O)c1ccccn1)NC(=O)[C@H](Cc1ccc(O)cc1)NC(=O)[C@H](CO)NC(=O)CCc1c[nH]c2ccccc12 [Compound 53] ({Propanoyl(3-indol-3-yl)}-SY[dK](Picolinoyl)LRP-NHEt)
20.4 nM	CCNC(=O)[C@@H]1CCCN1C(=O)[C@H](CCCNC(=N)N)NC(=O)[C@H](CC(C)C)NC(=O)[C@@H](CCCCNC(C)C)NC(=O)[C@H](Cc1ccc(O)cc1)NC(=O)[C@H](CO)NC(=O)CCc1c[nH]c2ccccc12 [Compound 54, N-(3-(3-Indole)propionyl)-Ser-Tyr-D-Lys-(N-epsilon-isp)-Leu-Arg-Pro-NHEt] ({Propanoyl(3-indol-3-yl)}-SY[dLys(iPr)]LRP-NHEt)
15.1 nM	CCNC(=O)[C@@H]1CCCN1C(=O)[C@H](CCCNC(=N)N)NC(=O)[C@H](CC(C)C)NC(=O)[C@@H](CCCCN)NC(=O)[C@H](Cc1ccc(O)cc1)NC(=O)[C@H](CO)NC(=O)CCc1c[nH]c2ccccc12 [Compound 55, N-(3-(3-Indole)propionyl)-Ser-Tyr-D-Lys-Leu-Arg-Pro-NHEt] ({Propanoyl(3-indol-3-yl)}-SY[dK]LRP-NHEt)
0.646 nM	CC(C)C[C@H](NC(=O)[C@@H](Cc1ccc2ccccc2c1)NC(=O)[C@H](Cc1ccc(O)cc1)NC(=O)[C@H](CO)NC(=O)CCc1c[nH]c2ccccc12)C(=O)N[C@@H](CCCNC(=N)N)C(=O)N1CCC[C@H]1C(=O)N[C@H](C)C(N)=O [Compound 56, N-(3-(3-Indole)propionyl)-Ser-Tyr-D-2-Nal-Leu-Arg-Pro-D-AlaNH2] ({Propanoyl(3-indol-3-yl)}-SY[d2Nal]LRP[dA]-NH2)
22.4 nM	CCNC(=O)[C@@H]1CCCN1C(=O)[C@H](CCCNC(=N)N)NC(=O)[C@H](CC(C)C)NC(=O)[C@@H](CC(C)C)N(C)C(=O)[C@H](Cc1ccc(O)cc1)NC(=O)[C@H](CO)NC(=O)CCc1c[nH]c2ccccc12 [Compound 58, N-(3-(3-Indole)propionyl)-Ser-Tyr-D-N-Me-Leu-Leu-Arg-Pro-NHEt] ({Propanoyl(3-indol-3-yl)}-SY[dNMeL]LRP-NHEt)
0.00832 nM	CCNC(=O)[C@@H]1CCCN1C(=O)[C@H](CCCNC(=N)N)NC(=O)[C@H](CC(C)C)NC(=O)[C@@H](Cc1c[nH]c2ccccc12)NC(=O)[C@H](Cc1ccc(O)cc1)NC(=O)[C@H](CO)NC(=O)[C@H](Cc1c[nH]c2ccccc12)NC(=O)[C@H](Cc1ccccc1)NC(=O)N1CCOCC1 [Compound 59, N-alpha-Morpholinocarbonyl-Phe-Trp-Ser-Tyr-D-Trp-Leu-Arg-ProNHET] ({Morpholide-CO}-FWSY[dW]LRP-NHEt)
5.25 nM	CCNC(=O)[C@@H]1CCCN1C(=O)[C@H](CCCNC(=N)N)NC(=O)[C@H](CC(C)C)NC(=O)[C@@H](CCCNC(=N)N)NC(=O)[C@H](Cc1ccc(O)cc1)NC(=O)[C@H](CO)NC(=O)[C@H](Cc1c[nH]c2ccccc12)NC(=O)[C@H](Cc1ccccc1)NC(=O)N1CCOCC1 [Compound 60, N-(alpha)-Morpholinocarbonyl-Phe-Trp-Ser-Tyr-D-Arg-Leu-Arg-ProNHEt] ({Morpholide-CO}-FWSY[dR]LRP-NHEt)
0.427 nM	CCNC(=O)[C@@H]1CCCN1C(=O)[C@H](CCCNC(=N)N)NC(=O)[C@H](CC(C)C)NC(=O)[C@@H](Cc1c[nH]c2ccccc12)NC(=O)[C@H](Cc1ccc(O)cc1)NC(=O)[C@H](CO)NC(=O)[C@H](Cc1c[nH]c2ccccc12)NC(=O)CCc1c[nH]cn1 [Compound 61, N-[3-(4-Imidazolyl)propionyl]-Trp-Ser-Tyr-D-Trp-Leu-Arg-ProNHEt] (Desaminohistidyl-WSY[dW]LRP-NHEt)
10.5 nM	CCNC(=O)[C@@H]1CCCN1C(=O)[C@H](CCCNC(=N)N)NC(=O)[C@H](CC(C)C)NC(=O)[C@@H](Cc1c[nH]c2ccccc12)NC(=O)[C@H](Cc1ccc(O)cc1)NC(=O)[C@H](CO)NC(=O)[C@H](Cc1c[nH]c2ccccc12)NC(=O)C=Cc1ccccc1 [Compound 62, (3-9)[N-Cinnamoyl-Trp^3 -D-Trp^6 -Pro^9 -NHEt]LHRH] (X2-WSY[dW]LRP-NHEt)
50.1 nM	CCNC(=O)[C@@H]1CCCN1C(=O)[C@H](CCCNC(=N)N)NC(=O)[C@H](CC(C)C)NC(=O)[C@@H](CC(C)C)NC(=O)[C@H](Cc1ccc(O)cc1)NC(=O)[C@H](CO)NC(=O)[C@H](Cc1c[nH]c2ccccc12)NC(=O)C=Cc1ccccc1 [Compound 63, (3-9)[N-Cinnamoyl-Trp^3 -D-Leu^6 -Pro^9 -NHEt]LHRH] (X2-WSY[dL]LRP-NHEt)
437 nM	CCNC(=O)[C@@H]1CCCN1C(=O)[C@H](CCCNC(=N)N)NC(=O)[C@H](CC(C)C)NC(=O)[C@@H](CC(C)C)NC(=O)[C@H](Cc1ccc(O)cc1)NC(=O)[C@H](CO)NC(=O)[C@H](Cc1c[nH]c2ccccc12)NC(=O)C=Cc1ccc(N(C)C)cc1 [Compound 64, (3-9)[N-((para-Dimethylamino)cinnamoyl)-Trp^3 -D-Leu^6 -Pro^9 -NHEt]LHRH] (X11-WSY[dL]LRP-NHEt)
